Laboratory results from patent US12306194B2, “Reagent for fluorescence imaging of lipid droplets in cell and tissue” (NATIONAL UNIVERSITY CORPORATION GUNMA UNIVERSITY, priority 2019, dated 2025).

Assays:
Assay type in all cases: cell-based
[1] = tested on: 3T3-L1 cells (adipocytes); test: Intracellular photostability under excitation light in 3T3-L1 cells
Description: Using a fluorescence microscope (IX71, manufactured by Olympus Corporation), fluorescence imaging images of cells were acquired over time, and the photostability (It/I0) and the retention property were measured.
The photostability and the retention property are important factors in long-term measurement for, for example, tracing the processes of formation, fusion, and degradation of lipid droplets. Each fluorescent reagent was added to 3T3-L1 cells (adipocytes) to a final concentration of 100 nM, and the cells were cultured for 30 minutes. After washing the cells, the cells were irradiated with an excitation light required for imaging (450 to 500 nm; for LipiDye, an excitation wavelength of 400 to 440 nm), to evaluate the photostability. By regarding the time immediately after the irradiation as Second 0, imaging images were acquired at 20-second intervals for analysis of the image intensity.

fixed HeLa cells = test: Fluorescence imaging of fixed HeLa cells; details: 100 nM, 30 minutes, HeLa fixed in 4% paraformaldehyde-phosphate buffer
Description: The fluorescence imaging reagent of the present invention is applicable to, and allows the detection in, unfixed biological samples and living bodies. The reagent is, however, also useful for fixed samples. HeLa cells cultured in the presence of 400 μM oleic acid for 48 hours were fixed in 4% paraformaldehyde-phosphate buffer for 20 minutes, and PC6S was added thereto to a final concentration of 100 nM, followed by performing culture for 30 minutes, washing the cultured cells, and then acquiring a fluorescence imaging image using an inverted fluorescence microscope in the same manner as in Example 2.

[2] = tested on: lipid droplets in HeLa cells; test: Multicolor imaging and time-course imaging of lipid droplet formation in HeLa cells
Description: Further, HeLa cells were cultured for 30 minutes in a medium to which PC6S was added to a final concentration of 100 nM, and PC6S unincorporated in the cells was removed, followed by acquiring a fluorescence imaging image (Hour 0) using an inverted fluorescence microscope in the same manner as in Example 2. The cells were cultured in the presence of 400 μM oleic acid for 24 hours, and their fluorescence imaging images were acquired 4, 8, 12, and 24 hours later.

CCN(CC)c1ccc2cc3cc(-c4nc5ccccc5s4)c(=O)oc3cc2c1 [PC6S, 3-(Benzo[d]thiazol-2-yl)-8-(diethylamino)-2H-benzo[g]chromen-2-one]
photostability (fluorescence intensity ratio It/I0 against irradiation time) ([1]; 100 nM, 3T3-L1 cells, relative to the commercially available reagents): highest photostability | Photostability ([1]; summary grade, Table 3): ⊚ | fluorescence detection in fixed cells (fixed HeLa cells): fluorescence of PC6S could be detected also in the fixed HeLa cells | imaging of lipid droplet formation over time ([2]; 100 nM, then 400 μM oleic acid, 4, 8, 12 and 24 hours): the process of gradual formation of lipid droplets could be imaged over time | multicolor imaging ([2]; combined use with Hoechst 33342 and Mito tracker red): multicolor imaging was possible
